Laboratory results taken from patent US20190297885A1 (Dow Global Technologies LLC, priority 2016, published 2019).

Tested on: Chlorella sp. ATCC 7516
Test: Algal efficacy testing of dry paint films (modified ASTM 5589, 6-well plates)
Assay type: cell-based
Details: 504 h
Experimental: These paints were then diluted with a biocide free acrylic/silicone based paint and mixed to prepare targeted concentrations of biocide combinations for the testing. The total biocides concentrations obtained were 125, 250, 500, 1000, 2000 and 5000 ppm. After biocides addition or dilution, the paints were mixed 90 seconds with the horse power shaker (AXEL 75M3372/Agitateur SO-10MI) until uniformity was achieved. […] After one day, the paints were applied to Schleicher & Schuell filter paper at 280 μm wet film thickness and dried for 3 days at room temperature avoiding direct exposure to sunlight. Square discs (1.8 cm×1.8 cm) were cut out from each panel and were used as the substrate for algal efficacy tests. This sample size allowed for an agar border when the sample disc was placed into the well of the test plate.
Algal efficacy was tested according to modified ASTM 5589 which is a standard accelerated test method for determining resistance of various coatings (including paints) to algal defacement. To accommodate for high-throughput screening, this method was scaled down from petri plates to 6-well plates. […]
At the end of the incubation period the samples were scored for percent inhibition regarding color intensity compared to the blank sample
The SI is calculated based on F. C. […]

## O=c1[nH]c2c(c(=O)n1C1CCCCC1)CCC2 [Lenacil, 3-Cyclohexyl-6,7-dihydro-1H-cyclopentapyrimidine-2,4-(3H,5H)-dione]
  inhibition at 1000 ppm: 90%

## N#Cc1c(Cl)c(Cl)c(Cl)c(C#N)c1Cl [Chlorothalonil, 2,4,5,6-tetrachloroisophthalonitrile]
Total conc 10,000 ppm in paint, three weeks, color intensity vs blank, pass level 75%
  inhibition at 10000 ppm: 15%
